Measured values as given in patent publication US7176199B2, “Aryl-substituted alicyclic compound and medical composition comprising the same” (Dainippon Pharmaceutical Co., Ltd., priority 2001, dated 2007).
Like-named read-outs stand apart in the source and are kept apart here.

What was measured:
αIIbβ3 integrin = biological target: T1, αIIbβ3 integrin (Homo sapiens, UniProt P05106+P08514); test: Assay for the inhibition of αIIbβ3 integrin binding (fibrinogen as ligand, integrin captured from platelet lysate); conditions: inhibition of specific binding of biotinylated fibrinogen to αIIbβ3 integrin from human platelet lysate
T1 construct: from tissue; host or cells: human platelets (Triton X-100 lysate)
Experimental: Experiment 2: Assay for the Inhibition of αIIbβ3 Integrin Binding
This experiment was carried out based on the method described in Thromb. Haemostasis, 75, 339 (1996), Blood, 93, 2559 (1999), using fibrinogen as a ligand. According to the method described in the above literatures, assay for the inhibition of αIIbβ3 integrin binding can be achieved by capturing αIIbβ3 integrin from platelet lysate with the use of an activated antibody against αIIbβ3 integrin.
Human platelets were isolated in a conventional manner. At 25° C., the isolated platelets were adjusted to a concentration of 1.25×10^9/ml with TBS+[50 mM Tris-HCl (pH 7.4), 150 mM NaCl, 2 mM CaCl2], and then ⅛ volume of TBS^+ containing 2 mM leupepsin and 10 mM PMSF was added and stirred gently. Nest, 1/9 volume of TBS+ containing 10% Triton X-100 was added and stirred gently. After standing on ice for 30 minutes, a platelet lysate was prepared from the mixture by discarding the insoluble fraction with centrifugation (10,000 g, 15 minutes).
Anti-mouse IgG goat antibody (Jackson Immunoresearch Laboratories, Inc., USA) was adjusted to a concentration of 5 μg/ml with sodium carbonate buffer (pH 9.6) and added to plates at 50 μl/well. The plate was left at 4° C. overnight for immobilization of the antibody. All subsequent steps were done at 25° C., and the procedure for each well was described hereafter.
The well was washed once with TBS^+, and then 200 μl of TBS^+ containing 5% BSA was added to the well and left for one hour for blocking. The well was washed with a reaction solution (TBS^+ containing 0.1% BSA and 0.05% Triton X-100) 4 times, and then 50 μl of anti-human αIIbβ3 integrin activated monoclonal antibody (TAKARA SHUZO CO., LTD, Japan, PT25-2 strain) adjusted to 5 μg/ml with the reaction solution was added to the well. After one hour reaction, the well was washed 4 times with the reaction solution, and 50 μl of the platelet lysate diluted 1:2 with the reaction solution was added to the well. Following 2 hours reaction, the well was washed 4 times with the reaction solution, and 50 μl of the reaction solution was added to the well. Subsequently, 25 μl of a test compound solution adjusted to each concentration with the reaction solution was added, and then mixed with 25 μl of biotinylated fibrinogen (Calbiochem, Germany) adjusted to 2 μg/ml with the reaction solution. The mixture was reacted for one hour. After washing 4 times with the reaction solution, 100 μl of alkaline phosphatase-labeled streptoavidin (Gibco BRL, USA) diluted 1:500 with the reaction solution was added to the well. Following 30 minutes reaction, the well was washed 4 times with the wash solution. Next, 50 μl of the NaDPH solution (Invitrogen, former company name: Gibco BRL, USA) was added and reacted for 20 minutes, and then 50 μl of an amplification solution containing diaphorase and alcohol dehydrogenase (Invitrogen, former company name: Gibco BRL, USA) was added. Color was developed for 20 minutes and the reaction was stopped by adding 50 μl of 0.5 M sulfuric acid.
(§1) The absorbance at 495 nm was measured with a plate reader to obtain a total binding. To obtain a nonspecific binding, EDTA adjusted to 20 mM with the reaction solution was added instead of the test compound solution. A specific binding was calculated by subtracting the nonspecific binding from the total binding.

αvβ3 integrin [1] = biological target: T2, αvβ3 integrin (Homo sapiens, UniProt P05106+P06756); test: Assay for the inhibition of αvβ3 integrin binding (vitronectin as ligand); design: purchased Chemicon International, Inc., USA; conditions: inhibition of specific binding of biotinylated human vitronectin to immobilized αvβ3 integrin
Experimental: Experiment 1: Assay for the Inhibition of αvβ3 integrin binding
This experiment was carried out based on the method described in […].
Purified human αvβ3 integrin (Chemicon International, Inc., USA) was adjusted to a concentration of 1 μg/ml with TBS^++ [20 mM Tris-HCl (pH 7.4), 150 mM NaCl, 1 mM CaCl2, 1 mM MgCl2], and the diluted solution was added to plates (Labsystems, Finland) at 50 μl/well. The plate was left at 4° C. overnight for immobilization of the αvβ3 integrin. All subsequent steps were done at 25° C., and the procedure for each well was described hereafter.
The solution was discarded, and then 200 μl of TBS^++ containing 1% BSA (Wako Pure Chemical Industries, Ltd., Japan) was added to the well and left for one hour for blocking. The well was washed with a wash solution (TBS^++ containing 0.01% Tween 20) 4 times, and 50 μl of a reaction solution (TBS^++ containing 0.1% BSA and 0.01% Tween 20) was added to the well. Subsequently, 25 μl of a test compound solution adjusted to each concentration with the reaction solution was added, and then mixed with 25 μl of biotinylated (Amersham Pharmacia Biotech, UK) human vitronectin (Gibco BRL, USA) adjusted to 0.4 μg/ml with the reaction solution. The mixture was reacted for 2 hours. After washing 4 times with the wash solution, 100 μl of peroxidase-labeled streptoavidin (Amersham Pharmacia Biotech, UK) diluted 1:500 with the reaction solution was added to the well. Following 30 minutes reaction, the well was washed 4 times with the wash solution, and 100 μl of a TMB substrate solution (Bio-Rad Laboratories, USA) was added to the well. Color was developed for 20 minutes and the reaction was stopped by adding 100 μl of 0.5 M sulfuric acid.
as §1, with “450” for “495”, “reader (Molecular Devices, USA)” for “reader”

GPIIb/IIIa = GPIIb/IIIa (Homo sapiens, UniProt P05106+P08514); conditions: read-out: GPIIb/IIIa inhibitory activity IC50 value, cited from earlier work
αvβ3 integrin [2] = biological target: T2, αvβ3 integrin; conditions: reported in WO 99/52872; read-out: αvβ3 integrin inhibitory activity IC50 value; cited from earlier work

T1 sequence (P08514 32-887 limits assumed): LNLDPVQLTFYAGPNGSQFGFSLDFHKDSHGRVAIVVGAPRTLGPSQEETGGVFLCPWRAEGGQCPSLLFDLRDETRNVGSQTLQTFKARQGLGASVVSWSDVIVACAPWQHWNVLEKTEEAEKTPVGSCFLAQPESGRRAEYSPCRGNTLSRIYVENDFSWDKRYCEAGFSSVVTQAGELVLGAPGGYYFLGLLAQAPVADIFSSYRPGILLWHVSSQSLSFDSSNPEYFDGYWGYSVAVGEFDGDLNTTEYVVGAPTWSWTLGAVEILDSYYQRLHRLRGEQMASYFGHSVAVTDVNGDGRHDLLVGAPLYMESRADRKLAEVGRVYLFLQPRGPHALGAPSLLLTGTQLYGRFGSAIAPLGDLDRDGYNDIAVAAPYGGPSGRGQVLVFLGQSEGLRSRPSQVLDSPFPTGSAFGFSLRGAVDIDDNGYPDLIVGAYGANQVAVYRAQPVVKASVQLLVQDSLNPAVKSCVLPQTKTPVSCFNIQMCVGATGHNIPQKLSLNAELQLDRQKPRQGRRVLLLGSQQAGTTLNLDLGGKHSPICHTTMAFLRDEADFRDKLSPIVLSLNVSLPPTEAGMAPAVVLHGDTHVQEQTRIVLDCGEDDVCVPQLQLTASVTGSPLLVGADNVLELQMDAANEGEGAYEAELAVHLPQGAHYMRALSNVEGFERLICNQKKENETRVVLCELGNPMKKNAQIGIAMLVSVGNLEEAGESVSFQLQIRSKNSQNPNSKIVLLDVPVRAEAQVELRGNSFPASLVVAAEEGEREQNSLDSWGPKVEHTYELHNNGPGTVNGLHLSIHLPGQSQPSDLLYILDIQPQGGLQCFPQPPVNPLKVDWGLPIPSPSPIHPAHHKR
T1 sequence (P08514 891-1039 partner limits assumed): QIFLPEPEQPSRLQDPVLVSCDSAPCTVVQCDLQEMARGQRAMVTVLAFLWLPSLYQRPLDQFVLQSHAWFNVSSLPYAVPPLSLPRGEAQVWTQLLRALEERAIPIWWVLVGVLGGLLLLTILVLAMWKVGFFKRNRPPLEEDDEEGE
T1 sequence (P05106 27-788): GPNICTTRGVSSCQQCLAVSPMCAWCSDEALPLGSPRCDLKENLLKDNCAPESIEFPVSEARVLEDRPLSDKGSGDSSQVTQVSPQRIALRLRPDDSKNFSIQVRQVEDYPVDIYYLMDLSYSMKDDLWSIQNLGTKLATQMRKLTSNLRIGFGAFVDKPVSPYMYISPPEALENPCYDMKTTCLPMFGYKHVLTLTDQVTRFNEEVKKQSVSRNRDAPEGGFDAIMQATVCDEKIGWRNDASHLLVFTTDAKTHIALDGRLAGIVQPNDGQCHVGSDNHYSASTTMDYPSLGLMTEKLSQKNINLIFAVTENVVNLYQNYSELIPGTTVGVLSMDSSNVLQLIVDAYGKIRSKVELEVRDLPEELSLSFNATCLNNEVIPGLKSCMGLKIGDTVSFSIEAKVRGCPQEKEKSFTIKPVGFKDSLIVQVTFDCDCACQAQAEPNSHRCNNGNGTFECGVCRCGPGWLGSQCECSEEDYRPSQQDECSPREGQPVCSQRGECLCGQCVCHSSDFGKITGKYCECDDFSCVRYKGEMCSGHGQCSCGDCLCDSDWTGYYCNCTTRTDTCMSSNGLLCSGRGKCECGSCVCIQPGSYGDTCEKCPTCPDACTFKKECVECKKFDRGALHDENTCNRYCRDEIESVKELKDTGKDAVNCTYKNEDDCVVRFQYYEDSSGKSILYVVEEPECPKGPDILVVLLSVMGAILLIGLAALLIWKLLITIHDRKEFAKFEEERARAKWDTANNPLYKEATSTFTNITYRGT
T2 sequence (P06756 31-889 limits assumed): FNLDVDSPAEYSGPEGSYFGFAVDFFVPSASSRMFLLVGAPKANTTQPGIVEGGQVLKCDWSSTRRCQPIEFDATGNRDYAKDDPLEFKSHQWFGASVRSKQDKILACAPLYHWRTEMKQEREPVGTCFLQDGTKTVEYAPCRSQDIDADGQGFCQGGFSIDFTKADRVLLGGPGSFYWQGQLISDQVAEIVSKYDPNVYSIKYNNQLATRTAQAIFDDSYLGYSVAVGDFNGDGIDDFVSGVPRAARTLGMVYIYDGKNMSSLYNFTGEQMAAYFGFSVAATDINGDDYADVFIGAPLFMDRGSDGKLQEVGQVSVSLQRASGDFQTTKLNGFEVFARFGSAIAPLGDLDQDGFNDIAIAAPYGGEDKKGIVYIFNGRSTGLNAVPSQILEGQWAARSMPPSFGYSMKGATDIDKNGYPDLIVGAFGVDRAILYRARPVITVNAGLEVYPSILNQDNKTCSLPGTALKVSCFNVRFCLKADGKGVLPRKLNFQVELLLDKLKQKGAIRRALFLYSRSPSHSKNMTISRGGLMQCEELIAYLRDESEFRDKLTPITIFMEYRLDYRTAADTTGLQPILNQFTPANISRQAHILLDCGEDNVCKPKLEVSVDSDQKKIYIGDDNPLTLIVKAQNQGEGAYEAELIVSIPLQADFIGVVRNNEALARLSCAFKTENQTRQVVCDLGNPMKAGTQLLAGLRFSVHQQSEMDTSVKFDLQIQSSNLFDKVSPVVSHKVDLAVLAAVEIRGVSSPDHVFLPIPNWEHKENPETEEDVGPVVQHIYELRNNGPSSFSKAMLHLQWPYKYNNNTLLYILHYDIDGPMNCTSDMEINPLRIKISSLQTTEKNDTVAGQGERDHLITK
T2 sequence (P06756 891-1048 partner limits assumed): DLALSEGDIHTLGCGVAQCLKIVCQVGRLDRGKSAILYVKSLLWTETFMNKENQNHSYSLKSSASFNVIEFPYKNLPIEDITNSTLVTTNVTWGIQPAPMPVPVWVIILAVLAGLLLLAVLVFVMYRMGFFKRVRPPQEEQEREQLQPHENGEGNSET
T2 sequence (P05106 27-788): as the sequence (P05106 27-788) above
GPIIb/IIIa, sequence (P08514 32-887 limits assumed): as the sequence (P08514 32-887 limits assumed) above
GPIIb/IIIa, sequence (P08514 891-1039 partner limits assumed): as the sequence (P08514 891-1039 partner limits assumed) above
GPIIb/IIIa, sequence (P05106 27-788): as the sequence (P05106 27-788) above

O=C(N[C@@H](CNC(=O)N1CCN(c2cccc(NC3=NCCCN3)c2)CC1)C(=O)O)OCc1ccccc1 [Ex. 145, (2S)-2-benzyloxycarbonylamino-3-[[4-[3-(1,4,5,6-tetrahydropyrimidin-2-yl)aminophenyl]piperazin-1-yl]carbonylamino]-propanoic acid]
IC50 (αIIbβ3 integrin): 380 nM | IC50 (αvβ3 integrin [1]): 0.041 nM

O=C(C[C@H](NC(=O)OCc1ccccc1)C(=O)O)NC1CCN(c2cccc(NC3=NCCCN3)c2)CC1 [Ex. 146, (2S)-2-benzyloxycarbonylamino-4-[[1-[3-(1,4,5,6-tetrahydropyrimidin-2-yl)aminophenyl]piperidin-4-yl]amino]-4-oxobutanoic acid]
IC50 (αIIbβ3 integrin): 4200 nM | IC50 (αvβ3 integrin [1]): 1 nM

O=C(N[C@@H](CCC(=O)N1CCC(c2cccc(NC3=NCCCN3)c2)CC1)C(=O)O)OCc1ccccc1 [Ex. 148, (2S)-2-benzyloxycarbonylamino-5-[4-[3-(1,4,5,6-tetrahydropyrimidin-2-yl)aminophenyl]piperidin-1-yl]-5-oxopentanoic acid]
IC50 (αIIbβ3 integrin): 420 nM | IC50 (αvβ3 integrin [1]): 0.17 nM

Cc1cc(N2CCC(C(=O)NC[C@H](NC(=O)OCc3ccccc3)C(=O)O)CC2)nc(NC2=NCCCN2)n1 [Ex. 150, (2S)-2-benzyloxycarbonylamino-3-[[1-[2-(1,4,5,6-tetrahydropyrimidin-2-yl)amino-6-methylpyrimidin-4-yl]piperidin-4-yl]-carbonylamino]propanoic acid]
IC50 (αIIbβ3 integrin): 52 nM | IC50 (αvβ3 integrin [1]): 0.081 nM

COc1ccc(NC2=NCCCN2)cc1N1CCC(C(=O)NC[C@H](NC(=O)OCc2ccccc2)C(=O)O)CC1 [Ex. 152, (2S)-2-benzyloxycarbonylamino-3-[[1-[2-methoxy-5-(1,4,5,6-tetrahydropyrimidin-2-yl)aminophenyl]piperidin-4-yl]carbonylamino]propanoic acid]
IC50 (αIIbβ3 integrin): 13 nM | IC50 (αvβ3 integrin [1]): 0.055 nM

Cc1ccc(N2CCC(C(=O)NC[C@H](NC(=O)OCc3ccccc3)C(=O)O)CC2)cc1NC1=NCCCN1 [Ex. 153, (2S)-2-benzyloxycarbonylamino-3-[[1-[4-methyl-3-(1,4,5,6-tetrahydropyrimidin-2-yl)aminophenyl]piperidin-4-yl]-carbonylamino]propanoic acid]
IC50 (αIIbβ3 integrin): 94 nM | IC50 (αvβ3 integrin [1]): 0.14 nM

COc1ccc(NC2=NCCCN2)cc1N1CCN(C(=O)CC[C@H](NC(=O)OCc2ccccc2)C(=O)O)CC1 [Ex. 154, (2S)-2-benzyloxycarbonylamino-5-[4-[2-methoxy-5-(1,4,5,6-tetrahydropyrimidin-2-yl)aminophenyl]piperazin-1-yl]-5-oxopentanoic acid]
IC50 (αIIbβ3 integrin): 530 nM | IC50 (αvβ3 integrin [1]): 0.096 nM

O=C(N[C@@H](CNC(=O)C1CCN(c2cc(F)cc(NC3=NCCCN3)c2)CC1)C(=O)O)OCc1ccccc1 [Ex. 156, (2S)-2-benzyloxycarbonylamino-3-[[1-[5-fluoro-3-(1,4,5,6-tetrahydropyrimidin-2-yl)aminophenyl]piperidin-4-yl]carbonylamino]-propanoic acid]
IC50 (αIIbβ3 integrin): 43 nM | IC50 (αvβ3 integrin [1]): 0.055 nM

O=C(N[C@@H](CCC(=O)N1CCN(c2cc(F)cc(NC3=NCCCN3)c2)CC1)C(=O)O)OCc1ccccc1 [Ex. 158, (2S)-2-benzyloxycarbonylamino-5-[4-[5-fluoro-3-(1,4,5,6-tetrahydropyrimidin-2-yl)aminophenyl]piperazin-1-yl]-5-oxopentanoic acid]
IC50 (αIIbβ3 integrin): 750 nM | IC50 (αvβ3 integrin [1]): 0.14 nM

O=C(N[C@@H](CNC(=O)C1CCN(c2cc(NC3=NCCCN3)ccn2)CC1)C(=O)O)OCc1ccccc1 [Ex. 159, (2S)-2-benzyloxycarbonylamino-3-[[1-[4-(1,4,5,6-tetrahydropyrimidin-2-yl)aminopyridin-2-yl]piperidin-4-yl]carbonylamino]-propanoic acid]
IC50 (αIIbβ3 integrin): 86 nM | IC50 (αvβ3 integrin [1]): 0.06 nM

O=C(N[C@@H](CNC(=O)C1CCN(c2cc(NC3=NCC(F)CN3)ccn2)CC1)C(=O)O)OCc1ccccc1 (stereo partly drawn) [Ex. 160, (2S)-2-benzyloxycarbonylamino-3-[[1-[4-(5-fluoro-1,4,5,6-tetrahydropyrimidin-2-yl)aminopyridin-2-yl]piperidin-4-yl]carbonylamino]-propanoic acid]
IC50 (αIIbβ3 integrin): 67 nM | IC50 (αvβ3 integrin [1]): 0.046 nM

CC(C)COC(=O)N[C@@H](CNC(=O)C1CCN(c2cc(NC3=NCCCN3)ccn2)CC1)C(=O)O [Ex. 161]
IC50 (αIIbβ3 integrin): 77 nM | IC50 (αvβ3 integrin [1]): 0.1 nM

CN(C[C@H](NC(=O)OCc1ccccc1)C(=O)O)C(=O)C1CCN(c2cccc(NC3=NCCCN3)c2)CC1 [Ex. 162, (2S)-2-benzyloxycarbonylamino-3-[[1-[3-(1,4,5,6-tetrahydropyrimidin-2-yl)aminophenyl]piperidin-4-yl]-N-methylcarbonylamino]propanoic acid]
IC50 (αIIbβ3 integrin): > 1000 nM | IC50 (αvβ3 integrin [1]): 0.21 nM

O=C(NC[C@H](NS(=O)(=O)c1ccccc1)C(=O)O)c1ccc(N2CCN(C3=NCCCN3)CC2)c(Cl)c1 [Example A-1, (2S)-2-benzenesulfonylamino-3-[3-chloro-4-[4-(1,4,5,6-tetrahydropyrimidin-2-yl)piperazin-1-yl]benzoylamino]propanoic acid]
IC50 (GPIIb/IIIa; reported in WO 99/38849): ≤ 0.2 nM

O=C(NC[C@H](NS(=O)(=O)c1ccccc1)C(=O)O)c1ccc(N2CCC(NC3=NCCCN3)CC2)c(F)c1 [Example A-2, (2S)-2-benzenesulfonylamino-3-[3-fluoro-4-[[4-(1,4,5,6-tetrahydropyrimidin-2-yl)amino]-piperidin-1-yl]benzoylamino]propanoic acid]
IC50 (αvβ3 integrin [2]): ≤ 1 nM | IC50 (GPIIb/IIIa; reported in WO 99/52872): ≤ 1 nM
